Reference: ChEMBL document CHEMBL5518235, “Identification of Novel Series of Potent and Selective Relaxin Family Peptide Receptor 1 (RXFP1) Agonists” (J Med Chem, 2024)

Legend:
[1] = target: T1, Relaxin receptor 1 (Homo sapiens) (UniProt Q9HBX9); experiment: Agonist activity at human RXFP1 expressed in T-Rex-CHO-K1 cells assessed as stimulation of cAMP production by measuring maximal efficacy at 50 uM incubated for 45 mins by HTRF assay relative to control; format: functional, cell-based
T1 sequence (whole entry): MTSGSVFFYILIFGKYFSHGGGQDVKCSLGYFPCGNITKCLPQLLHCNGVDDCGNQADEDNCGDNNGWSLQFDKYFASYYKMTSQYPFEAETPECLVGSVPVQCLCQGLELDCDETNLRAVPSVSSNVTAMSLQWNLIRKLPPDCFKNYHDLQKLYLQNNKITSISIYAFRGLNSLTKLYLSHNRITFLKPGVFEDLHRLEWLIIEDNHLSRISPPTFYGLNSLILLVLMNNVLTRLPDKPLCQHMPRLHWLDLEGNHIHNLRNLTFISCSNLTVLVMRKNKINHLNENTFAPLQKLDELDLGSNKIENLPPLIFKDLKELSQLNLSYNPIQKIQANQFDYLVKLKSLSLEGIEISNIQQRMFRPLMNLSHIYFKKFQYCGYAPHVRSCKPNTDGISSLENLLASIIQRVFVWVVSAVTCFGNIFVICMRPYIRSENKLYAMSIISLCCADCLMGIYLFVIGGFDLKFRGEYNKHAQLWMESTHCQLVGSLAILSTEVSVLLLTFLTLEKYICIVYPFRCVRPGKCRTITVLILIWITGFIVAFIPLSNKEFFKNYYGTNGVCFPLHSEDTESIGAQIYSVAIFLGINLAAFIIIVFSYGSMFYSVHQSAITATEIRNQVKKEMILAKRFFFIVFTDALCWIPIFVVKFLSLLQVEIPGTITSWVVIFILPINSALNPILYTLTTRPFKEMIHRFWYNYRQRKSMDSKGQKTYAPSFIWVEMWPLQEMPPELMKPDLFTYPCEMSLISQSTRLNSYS

Relaxin receptor 1 = target: T2, Relaxin receptor 1 (Homo sapiens, UniProt Q9HBX9); experiment: Agonist activity at human RXFP1 expressed in T-Rex-CHO-K1 cells assessed as stimulation of cAMP production incubated for 45 mins by HTRF assay; format: functional, cell-based
T2 sequence (Q9HBX9 whole entry): T1 sequence (whole entry)

[2] = Lipophilicity, logD of the compound in 1-octanol and phosphate buffer at pH 7.4 incubated for 3 hrs by shake flask method based LC/MS/MS analysis; format: physicochemical; conditions: 1-octanol/phosphate buffer, pH 7.4
[3] = Metabolic stability in human liver microsomes assessed as intrinsic clearance at 1 uM incubated for 30 mins in presence of NADPH by LC-MS/MS analysis; format: ADME, Microsome; conditions: liver microsomes, read-out: CLH
[4] = Metabolic stability in human liver microsomes assessed as unbound intrinsic clearance at 1 uM incubated for 30 mins in presence of NADPH by LC-MS/MS analysis; format: ADME, Microsome; conditions: 0.5 h
[5] = Metabolic stability in cryopreserved human hepatocytes assessed as intrinsic clearance measured per 10^6 cells at 1 uM after 120 mins by LC-MS/MS analysis; format: ADME, cell-based, Hepatocyte; conditions: cryopreserved hepatocytes, read-out: CLH
[6] = Metabolic stability in cryopreserved human hepatocytes assessed as unbound intrinsic clearance measured per 10^6 cells at 1 uM measured after 120 mins by LC-MS/MS analysis; format: ADME, cell-based, Hepatocyte; conditions: 2 h

Compound	Emax ([1]; filed as agonist) [%]	EC50 (Relaxin receptor 1) [nM]	logD at 3 h [2]	microsomal CLint at 1 µM [3] [µL/min/mg]	CL free [4]	hepatocyte CLint at 1 µM [5] [µL/min/1e6 cells]	CL free [6] [µL/min]	Emax [1] [%]
COc1cc(F)c(-c2ccc(C(=O)O)cc2)cc1C(=O)N[C@H]1[C@@H](C(=O)Nc2cccc(S(=O)(=O)C(F)(F)F)c2)[C@@H]2C=C[C@H]1C2	99							
COc1ccccc1C(=O)N[C@@H]1[C@H](C(=O)Nc2cccc(S(=O)(=O)C(F)(F)F)c2)[C@H]2C=C[C@@H]1C2 (racemic)	100	3160	4.9	300	12 10^3uL/min/mg			
COc1cc(F)c(-c2ccccc2)cc1C(=O)N[C@@H]1[C@H](C(=O)Nc2cccc(S(=O)(=O)C(F)(F)F)c2)[C@H]2C=C[C@@H]1C2 (racemic)	93	912	> 3.9	110	92 10^3uL/min/mg			
COc1cc(F)c(O[C@H]2CC[C@@H](C(=O)O)CC2)cc1C(=O)N[C@H]1[C@@H](C(=O)Nc2cccc(S(=O)(=O)C(F)(F)F)c2)[C@@H]2C=C[C@H]1C2	109	63.1	3.25			11	100	
COc1cc(F)c(C(=O)N2CCC(C)(C(=O)O)CC2)cc1C(=O)N[C@H]1[C@@H](C(=O)Nc2cccc(S(=O)(=O)C(F)(F)F)c2)[C@@H]2C=C[C@H]1C2 (racemic)	111	3160	1.9			3	6.3	
COc1cnc(-c2ccc(C(=O)O)cc2)cc1C(=O)N[C@H]1[C@@H](C(=O)Nc2cccc(S(=O)(=O)C(F)(F)F)c2)[C@@H]2C=C[C@H]1C2 (racemic)	117	3980	2.3	7	19 µL/min/mg			
COc1cc(F)c(O[C@H]2CC[C@](C)(C(=O)O)CC2)cc1C(=O)N[C@@H]1[C@H]2CC[C@H](C2)[C@@H]1C(=O)Nc1cccc(S(=O)(=O)C(F)(F)F)c1	103	100	4.2			10	222	
COc1cc(F)c(OCCCCC(=O)O)cc1C(=O)N[C@H]1[C@@H](C(=O)Nc2cccc(S(=O)(=O)C(F)(F)F)c2)[C@@H]2C=C[C@H]1C2 (racemic)	119	251	2.9			16	89	
COc1ccccc1C(=O)N[C@H]1[C@@H](C(=O)Nc2cccc(S(=O)(=O)C(F)(F)F)c2)[C@H]2C=C[C@@H]1C2 (racemic)		> 50100	3.5	140	0.35 10^3uL/min/mg			37
COc1cc(F)c(Oc2ccc(C(=O)O)cc2)cc1C(=O)N[C@H]1[C@@H](C(=O)Nc2cccc(S(=O)(=O)C(F)(F)F)c2)[C@@H]2C=C[C@H]1C2 (racemic)	103	316	3.6			7.2	480	
COc1cc(F)c(O[C@H]2CC[C@@](C)(C(=O)O)CC2)cc1C(=O)N[C@@H]1CCC[C@@H]1C(=O)Nc1ccc(F)c(S(F)(F)(F)(F)F)c1	105	3.16	4.35			13	283	
COc1cc(F)c(O[C@H]2CC[C@@H](C(=O)O)CC2)cc1C(=O)N[C@@H]1[C@H](C(=O)Nc2ccc(F)c(C(F)(F)F)c2)[C@H]2C=C[C@@H]1C2	107	2570	3.6			4.8	42	
COc1ccccc1C(=O)N[C@@H]1CCC[C@@H]1C(=O)Nc1cccc(S(=O)(=O)C(F)(F)F)c1 (racemic)	74	> 50100	4.9	174	2.4 10^3uL/min/mg			
COc1cc(F)c(O[C@H]2CC[C@@](C)(C(=O)O)CC2)cc1C(=O)N[C@@H]1COC[C@@H]1C(=O)Nc1cccc(S(=O)(=O)C(F)(F)F)c1	104	126	2.6			6.3	23	
COc1cc(F)c(O[C@H]2CC[C@@H](C(=O)O)CC2)cc1C(=O)N[C@H]1[C@@H](C(=O)Nc2ccc(F)c(S(=O)(=O)C(F)(F)F)c2)[C@@H]2C=C[C@H]1C2	114	15.8				7.5	32	
COc1cc(F)c(O[C@H]2CC[C@@H](C(=O)O)CC2)cc1C(=O)N[C@@H]1[C@H]2CC[C@H](C2)[C@@H]1C(=O)Nc1ccncc1	42	> 50100	1.6					
COc1cc(F)c(O[C@H]2CC[C@@](C)(C(=O)O)CC2)cc1C(=O)N[C@@H]1[C@H]2CC[C@H](C2)[C@@H]1C(=O)Nc1cccc(S(=O)(=O)C(F)(F)F)c1	109	2	4.15			15	306	
COc1cc(F)c(O[C@H]2CC[C@H](C(=O)O)CC2)cc1C(=O)N[C@H]1[C@@H](C(=O)Nc2cccc(S(=O)(=O)C(F)(F)F)c2)[C@@H]2C=C[C@H]1C2	81	2000	3			8.4	84	
COc1cc(F)c(O[C@H]2CC[C@@H](C(=O)O)CC2)cc1C(=O)N[C@@H]1[C@H]2CC[C@H](C2)[C@@H]1C(=O)Nc1cccc(C(F)F)c1	104		2.8			11	51	
COc1cc(F)c(O[C@H]2CC[C@@](C)(C(=O)O)CC2)cc1C(=O)N[C@@H]1C[C@@H](OC)C[C@@H]1C(=O)Nc1cccc(S(=O)(=O)C(F)(F)F)c1	110	25.1	3			6.2	26	
COc1cc(F)c(O[C@H]2CC[C@@H](C(=O)O)CC2)cc1C(=O)N[C@H]1[C@H](C(=O)Nc2ccc(F)c(C(F)(F)F)c2)[C@@H]2C=C[C@H]1C2	91	3980	3.5			10	91	
COc1cc(F)c(O[C@H]2CC[C@@H](C(=O)O)CC2)cc1C(=O)N[C@@H]1[C@H]2CC[C@H](C2)[C@@H]1C(=O)Nc1ccccc1	98	7940	2.5			7.6	25	
COc1cc(F)c(OCCCC(=O)O)cc1C(=O)N[C@H]1[C@@H](C(=O)Nc2cccc(S(=O)(=O)C(F)(F)F)c2)[C@@H]2C=C[C@H]1C2 (racemic)	114	1580	2.5			13	51	
